Each structure is given as a SMILES string.

Data set [1] has as its system MDA-MB-231 triple negative breast cancer cells. The data set can be described thus: XTT cell growth assay, MDA-MB-231. The conditions noted are these: Homo sapiens, MDA-MB-231, 24 h, NS = not statistically significant, read-out: Effectiveness to suppress MDA-MB-231 cell growth (cell growth inhibition). The data set is classed as cell-based, human. The text has this:
(§1) The XTT assay is used to measure cellular metabolic activity as an indicator of cell viability, proliferation and cytotoxicity. This non-radioactive, colorimetric assay system was first described by Scudiero, et al. in 1988 (Paull, Kenneth D. et al., J Heterocycl Chem, 1988, 25: 911-914; Scudiero, Dominic A. et al., Cancer Res, 1988, 48: 4827-4833) and improved in subsequent years by several other investigators (Weislow, Owen S. et al., J Natl Cancer Inst, 1989, 81(8): 577-586; Roehm, N. W. et al., J Immunol Methods, 1991, 142: 257-265).
(§2) The XTT assay is based on the reduction of a yellow tetrazolium salt (sodium 3′-[1-(phenylaminocarbonyl)-3,4-tetrazolium]-bis (4-methoxy6-nitro) benzene sulfonic acid hydrate or XTT) to an orange formazan dye by metabolically active cells (FIG. 8). The formazan dye formed is soluble in aqueous solutions and is directly quantified using a scanning multiwell spectrophotometer (ELISA reader). An increase in number of living cells results in an increase in the overall activity of mitochondrial dehydrogenases in the sample. This increase directly correlates to the amount of orange formazan formed, as monitored by the absorbance. Reduced number of living cells leads to reduced metabolism of quaternary salt and therefore reduced absorption.
(§3) Cell viability was assessed using the XTT assay kit (Roche, Mannheim, Germany) as described previously (Kouka, Paraskevi et al., Oxid Med Cell Longev. 2019, Article ID 1870965). Briefly, cancer cells per well were cultured in a 96-well plate in Dulbecco's modified Eagle's medium (DMEM). Following a 24 h incubation, 5, 10 and 50 μM of the tested GS compound was diluted in a serum-free DMEM and administered for 24 h. Subsequently, 50 μL of the XTT reagent (50:1) was added to each well. After 4 h of incubation, the absorbance was monitored at 450 nm and also at 630 nm as a reference wavelength in a BioTek ELx800 microplate reader (BioTek Instruments Inc., Winooski, VT, USA). As a negative control, samples containing serum-free DMEM only were used.
MDA-MB-231 is a human epithelial breast cancer cell line that was established from a pleural effusion of a person with a metastatic mammary adenocarcinomal and is one of the most commonly used breast cancer cell lines in medical research laboratories.
(§4) The effects of exemplary compounds on cancer cell lines and one non-tumorigenic cell line (control) were investigated using a high throughput screening assay. More specifically, the effects of the GS compounds on cell growth was evaluated by the XTT assay for cell lines HepG2, HeLa, MCF7 ER+, MDA-MB-231, and MKN-45, and by the Cell Glo luminescence assay for cell lines MIA PaCa-2, HCT-116, MCF-10A, and PANC-1.
Background: Formazan colour is commonly taken as a measure of viable cells.

For data set [2], the system named is MCF-7 ER+ breast cancer cells. The data set can be described thus: XTT cell growth assay, MCF-7 ER+. The conditions noted are these: Homo sapiens, MCF7, 24 h, NS = not statistically significant, read-out: Effectiveness to suppress MCF7 cell growth (cell growth inhibition). In kind it is cell-based, human.
From the text: as §1, §2, §3
MCF-7 ER+ is a human breast cancer cell line isolated in 1970 from a person. Prior to MCF-7, it was not possible for cancer researchers to obtain a mammary cell line that was capable of living longer than a few months.
as §4

A short description of data set [3]: ABTS radical cation scavenging assay. The data set is classed as biochemical. Conditions: NS = not statistically significant. From the text:
The method of estimating antioxidant capacity, based on the ability to interact with the ABTS.+ radical cation was first performed by Miller et al. in 1993 (Miller, Nicholas et al., Clinical Science, 1993, 84: 407-412, “A novel method for measuring the antioxidant capacity and its application to monitoring the antioxidant status in premature neonates”). The mechanism of interaction of the antioxidant agents to be examined with the ABTS.+ radical is similar to that of the DPPH. radical, which can be inactivated either by the addition of an electron or by the addition of a hydrogen atom. However, unlike the DPPH. radical, which is a stable radical from the beginning, the ABTS.+ radical must be produced by the oxidation of ABTS. Thus, in order to estimate the antioxidant capacity of a substance, the formation of the ABTS.+ radical must first precede and the addition of the substance to be examined must follow. The addition of the antioxidant agent is performed after the production of the root ABTS.+ to avoid the interaction of the antioxidant agents with the oxidizing agents used for the oxidation of ABTS.
The oxidation of ABTS takes place either through chemical reactions with various reagents or through the action of enzymes such as peroxidases. The ABTS.+ radical from the moment it is formed is stable, has a green color and absorbs at 730 nm. When a substance with antioxidant activity is added to the solution, then the ABTS.+ radical is reduced by the addition of a hydrogen (or electron) atom, resulting in reduced visual absorption.
To assess the antioxidant capacity of the samples, the oxidation of ABTS was performed enzymatically through the action of horseradish peroxidase (HRP), in the presence of H2O2 (FIG. 3)
The anti-oxidant capacity of the GS compounds was evaluated by performing the ABTS assay as previously described (Kouka, Paraskevi et al., Oxid Med Cell Longev. 2019, Article ID 1870965). Briefly, in a total reaction volume of 1 mL in distilled water (dH2O), ABTS.^+ (1 mM), H2O2 (30 μM), and horseradish peroxidase (HRP) (6 μM) in 50 mM phosphate-buffered saline were added. The solution was incubated for 45 min at room temperature (RT) in the dark. Finally, 10 μL of the tested GS compound at various concentrations was added, and the absorbance was monitored on a Hitachi U-1900 radio beam spectrophotometer (serial no. 2023-029; Hitachi Ltd.) at 730 nm. In each experiment, a blank without the HRP was used, while the ABTS.^+ radical solution without the extract was used as the control. The RSC percentage of the tested extracts was calculated using the following equation: RSC (%)=[(ODcontrol−ODcompound)/ODcontrol]×100, where ODcontrol and OD sample are the optical density (OD) values of the control and the test sample, respectively.

In data set [4] the test system is HeLa cervical cancer cells. The data set can be described thus: XTT cell growth assay, HeLa. In kind it is cell-based, human. Conditions: Homo sapiens, HeLa, 24 h, NS = not statistically significant, read-out: Effectiveness to suppress HeLa cell growth (cell growth inhibition).
From the text: as §1, §2, §3
HeLa is a human immortal cell line used in scientific research. It is the oldest and most commonly used human cell line. The line was derived from cervical cancer cells taken on Feb. 8, 1951 from Henrietta Lacks, a patient who died of cancer on Oct. 4, 1951.
as §4

Another data set deals with HepG2 liver cancer cells. Briefly: XTT cell growth assay, HepG2. In kind it is cell-based, human. Conditions: Homo sapiens, HepG2, 24 h, NS = not statistically significant, read-out: Effectiveness to suppress HepG2 cell growth (cell growth inhibition).
From the text: as §1, §2, §3
Hep G2 (or HepG2) is a human liver cancer cell line. Hep G2 is an immortal cell line which was derived from the liver tissue of an adolescent with a well-differentiated hepatocellular carcinoma. Hep G2 cells are a suitable in vitro model system for the study of polarized human hepatocytes.
as §4

Data set [5] has as its system HCT-116 colon cancer cells. The data set can be described thus: Cell Glo luminescence cell growth assay, HCT-116. In kind it is cell-based, human. Conditions: Homo sapiens, HCT-116, 24 h, NS = not statistically significant, read-out: Effectiveness to suppress HCT-116 cell growth (cell growth inhibition).
From the text: (§5) The CellTiter-Glo® Luminescent Cell Viability Assay (Promega Corporation; Madison, WI) is a homogeneous method of determining the number of viable cells in culture based on quantitation of the ATP present, an indicator of metabolically active cells. The homogeneous assay procedure involves adding the single reagent (CellTiter-Glo® Reagent) directly to cells cultured in serum-supplemented medium. The homogeneous “add-mix-measure” format results in cell lysis and generation of a luminescent signal proportional to the amount of ATP present. The amount of ATP is directly proportional to the number of cells present in culture.
Cancer cells (3,000 cells/well) were harvested in a 96-well plate. Then, the cancer cells were treated with GS compounds and incubated for 24 hours. The MT Cell Viability Substrate, NanoLuc® Enzyme and cell culture medium was equilibrated to 37° C. The 2× RealTime-Glo™ reagent was prepared by diluting the MT Cell Viability Substrate and NanoLuc® Enzyme in 37° C. cell culture medium to a 2× concentration for each reagent. For example, 1 mL of 2× RealTime-Glo™ reagent was prepared by adding 2 μL of MT Cell Viability Substrate, 1,000×, and 2 μL of NanoLuc® Enzyme, 1,000×, to 996 μL of cell culture medium to form the 2× RealTime-Glo™ reagent. Then, an equal volume of 2× RealTime-Glo™ reagent was added to the cancer cells. The cells were kept for ˜20 minutes in the cell culture incubator and then luminescence was measured by using a plate-reading luminometer.
HCT-116 is a human colorectal cancer cell lines that has a mutation in RAS proto-oncogene.
as §4

Data set [6] deals with MCF-10A non-tumorigenic mammary epithelial cells. Briefly: Cell Glo luminescence cell growth assay, MCF-10A normal cells. The data set is classed as cell-based, human.
From the text: as §5
Cancer cells (3,000 cells/well) were harvested in a 96-well plate. Then, the cancer cells were treated with GS compounds and incubated for 24 hours. The MT Cell Viability Substrate, NanoLuc® Enzyme and cell culture medium was equilibrated to 37° C. The 2× RealTime-Glo™ reagent was prepared by diluting the MT Cell Viability Substrate and NanoLuc® Enzyme in 37° C. cell culture medium to a 2× concentration for each reagent. […] The cells were kept for ˜20 minutes in the cell culture incubator and then luminescence was measured by using a plate-reading luminometer. […]
The effects of exemplary compounds on cancer cell lines and one non-tumorigenic cell line (control) were investigated using a high throughput screening assay. More specifically, the effects of the GS compounds on cell growth was evaluated by the XTT assay for cell lines HepG2, HeLa, MCF7 ER+, MDA-MB-231, and MKN-45, and by the Cell Glo luminescence assay for cell lines MIA PaCa-2, HCT-116, MCF-10A, and PANC-1. […]
The effect of GS27 on normal cell growth was evaluated using the MCF-10A cell line. […]
GS27, NDI-091143 and Nexletol (10 μM) were used to treat normal epithelial cells MCF-10A cells. […] Forty-eight hours post-treatment, the growth of MCF-10A cells was evaluated by CellTiter-Glo® Luminescent Cell Viability Assay, as discussed in Example 29.

A short description of data set [7]: Deoxyribose degradation assay (hydroxyl radical scavenging). The data set is classed as biochemical. The conditions noted are these: NS = not statistically significant. Here is the method: The hydroxyl radical (OH.) is an extremely reactive in biological systems and has been implicated as highly damaging species in free radical pathology, capable of damaging biomolecules of the living cells. These radical combines with nucleotides in DNA and cause strand breakage leading to carcinogenesis, mutagenesis and cytotoxicity. Hydroxyl radical (OH.) scavenging capacity of an extract is directly related to its antioxidant activity.
The effect of extracts on hydroxyl radicals was assayed by using the deoxyribose method. 2-Deoxyribose is degraded on exposure to hydroxyl radicals generated by Fenton's reaction. The ability to neutralize the OH. is estimated as the rate of inhibition of the oxidation of 2-deoxyribose by the OH. (FIG. 5).
The measurement of the hydroxyl radical scavenging activity was evaluated for each of the GS compound by evaluating the pink chromogen absorption at 532 nm by spectrophotometry as described previously (Perjesi, Pal et al., Open Med Chem J., 2011, 5: 61-67

Data set [8] concerns MKN-45 gastric cancer cells. Briefly: XTT cell growth assay, MKN-45. In kind it is cell-based, human. The conditions noted are these: Homo sapiens, MKN-45, 24 h, NS = not statistically significant, read-out: Effectiveness to suppress MKN-45 cell growth (cell growth inhibition).
From the text: as §1, §2, §3
MKN-45 is a human gastric adenocarcinoma, established from the poorly differentiated adenocarcinoma of the stomach (medullary type) of a person.
as §4

For the compound `C/C=C1/[C@H](OC2OC(CO)C(O)C(O)C2O)OC=C(C(=O)O)[C@H]1CC(=O)OCCc1cccc(O)c1` (stereo in doubt) [GS14, (2S,4S,E)-3-ethylidene-4-(2-(3-hydroxyphenethoxy)-2-oxoethyl)-2-{[(2R,3S,4R,5R,6S)-3,4,5-trihydroxy-6-(hydroxymethyl)tetrahydro-2H-pyran-2-yl]oxy}-3,4-dihydro-2H-pyran-5-carboxylic acid], the inhibition – broadly, the relative decrease from the control value, in per cent – at 50 µM stood at 38.2% in data set [1], 28.4% in [2], 29.5% in data set [4] and 10% in the data set with HepG2 liver cancer cells. Further, in data set [3], the “ABTS Radical Cation Scavenging Assay IC50” value was 66 μg extract/mL. Also, the inhibition at 1 µM in [5] was 26.4%.
As for `C/C=C(/C=O)[C@@H](CC=O)CC(=O)OC` [GS16, (3S,4E)-4-Formyl-3-(2-oxoethyl)hex-4-enoic acid methyl ester], the inhibition at 10 µM in [6] (Homo sapiens, MCF-10A, 10 uM, 24 h, normal cells, safety control, NS = not statistically significant, read-out: Effectiveness to suppress MCF10A cell growth (cell growth inhibition)) is 10.1%. The inhibition at 50 µM came to 35% in [1], 26.6% in data set [2] and 72.6% in data set [4].
Consider `C/C=C(/C=O)[C@@H](CC=O)CC(=O)OCCc1cccc(O)c1` [GS20, (3S,4E)-4-formyl-3-(2-oxoethyl)-4-hexenoic acid 3-hydroxyphenethyl ester], for which the inhibition at 50 µM in [1] came to 56.4%; in data set [2], 36.1%; in [4] it was 56.4%; with HepG2 liver cancer cells, 50%; in data set [8], 84.1%. For the same compound, the “ABTS Radical Cation Scavenging Assay IC50” value in [3] is on record as 50.2 μg extract/mL. The “Deoxyribose Degradation Assay IC50” value in data set [7] is reported as 20 μg extract/mL.
As to `CC(C)(CCCCCC(O)CCCCCC(C)(C)C(=O)O)C(=O)O` [Nexletol, reference compound], in [6] (10 μM, forty-eight hours post-treatment), the “effect on MCF-10A normal cell growth” value is listed as “inhibitory effect”.

The values above are taken from patent publication US12414960B2, “Analogues of oleuropein and oleacein and uses thereof” (Attica Sciences Ltd., priority 2020, dated 2025).
